# Data from US7993922B2, “Three-dimensional tissue equivalent using macromass culture” (Reliance Life Sciences Pvt. Ltd., priority 2002, dated 2011).
# Key:
# [1] = test system: dividing monolayers of fibroblasts; test: Camptothecin toxicity on dividing monolayers, MTT; assay type: cell-based, human; conditions: actively dividing monolayer cells
# Procedure: (§1) As mentioned previously, the tissue equivalent of the present invention could be used as an in vitro model of normal non-dividing cells for safety testing of anti-cancer compounds. To test its usefulness as such a model, dividing monolayers of fibroblasts and the tissue-equivalent of the present invention were incubated with or without (control) camptothecin, an anti-cancer drug known to act on dividing cells and not on non-dividing cells. Both were incubated for the same period of time. Then the metabolic activity was assessed by incubating both groups in MTT, which was quantified by spectrophotometry. […] Leroy et al. Ann. N.Y. Acad. Sci. (2000) 922:1-10. Thus, these are normal cells in a non-dividing state, which could be a model of the normal quiescent cells of the human body, in contrast to the abnormal tumour cells which are rapidly dividing.
# [2] = test system: tissue-equivalent of the present invention (non-dividing fibroblasts); test: Camptothecin toxicity on the non-dividing model (tissue equivalent), MTT; assay type: cell-based, human; conditions: non-dividing cells
# Procedure: as §1
# [3] = test system: neuropathic diabetic foot ulcers; conditions: topical; cited from earlier work
Molecule,"Toxicity (metabolic activity, MTT) [1]","Toxicity (metabolic activity, MTT) [2]",Acceleration in the healing of ulcers [3]
CC[C@@]1(O)C(=O)OCc2c1cc1n(c2=O)Cc2cc3ccccc3nc2-1 [camptothecin],toxic,no toxicity,–
Regranex® Becaplermin: FDA-approved topical platelet-derived growth factor (PDGF) for chronic diabetic neuropathic ulcers,–,–,15%
